Reference: patent publication US7607596B1, “Process for enhancing the solubility of poorly soluble drugs” (Exxpharma, LLC, priority 2007, dated 2009)

Test: dissolution rate of ketoprofen in 0.1 N HCl
Assay type: physicochemical
Details: granulated with microcrystalline cellulose

dissolution rate of ketoprofen in 0.1N HCl (change after processing) (Example 1: ketoprofen ground/mixed with distilled water in TSGM, 200 rpm, 25° C., dried at 40° C.): increased two-fold
dissolution rate of ketoprofen in 0.1N HCl (change after processing) (Example 2: ketoprofen ground/mixed with 10% aqueous solution of Labrasol in TSGM): increased two-fold
dissolution rate of ketoprofen in 0.1N HCl (change after processing) (Example 3: ketoprofen ground/mixed with 10% aqueous solution of Tween 80 in TSGM): increased four-fold
dissolution rate of ketoprofen in 0.1N HCl (change after processing) (Example 4: ketoprofen ground/mixed with 10% aqueous solution of Capryol 90 in TSGM): increased two-fold
dissolution rate of ketoprofen in 0.1N HCl (change after processing) (Example 5: ketoprofen ground/mixed with 10% aqueous solution of polyvinylpyrrolidone in TSGM): increased three-fold
Compound: CC(C(=O)O)c1cccc(C(=O)c2ccccc2)c1 (centres unmarked) [ketoprofen, Ketoprofen]
